According to PubChem BioAssay (NCI):
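Where inhibition never reached the appropriate level, the endpoint shown equals the highest concentration tested. Otherwise, values were interpolated linearly from a five-concentration, 48-hour dose response in 96-well plates. The concentration for full growth arrest is given as TGI.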

How the values were obtained:
Experiment in all cases: NCI anticancer screen, dose series, 48 h
786-0 renal = tested on: 786-0 renal
A498 renal = tested on: A498 renal
A549 NSCLC = tested on: A549 NSCLC
ACHN renal = tested on: ACHN renal
CAKI-1 renal = tested on: CAKI-1 renal
CCRF-CEM leukemia = tested on: CCRF-CEM leukemia
COLO 205 colon = tested on: COLO 205 colon
DLD-1 colon = tested on: DLD-1 colon
DMS 114 small cell lung = tested on: DMS 114 small cell lung
DMS 273 small cell lung = tested on: DMS 273 small cell lung
EKVX NSCLC = tested on: EKVX NSCLC
HCC-2998 colon = tested on: HCC-2998 colon
HCT-116 colon = tested on: HCT-116 colon
HCT-15 colon = tested on: HCT-15 colon
HL-60(TB) leukemia = tested on: HL-60(TB) leukemia
HOP-18 NSCLC = tested on: HOP-18 NSCLC
HOP-62 NSCLC = tested on: HOP-62 NSCLC
HOP-92 NSCLC = tested on: HOP-92 NSCLC
HT29 colon = tested on: HT29 colon
IGROV1 ovarian = tested on: IGROV1 ovarian
K-562 leukemia = tested on: K-562 leukemia
KM12 colon = tested on: KM12 colon
LOX IMVI melanoma = tested on: LOX IMVI melanoma
LXFL 529 NSCLC = tested on: LXFL 529 NSCLC
M14 melanoma = tested on: M14 melanoma
M19-MEL melanoma = tested on: M19-MEL melanoma
MALME-3M melanoma = tested on: MALME-3M melanoma
MOLT-4 leukemia = tested on: MOLT-4 leukemia
NCI-H226 lung = tested on: NCI-H226 lung
NCI-H23 lung = tested on: NCI-H23 lung
NCI-H460 lung = tested on: NCI-H460 lung
NCI-H522 lung = tested on: NCI-H522 lung
OVCAR-3 ovarian = tested on: OVCAR-3 ovarian
OVCAR-4 ovarian = tested on: OVCAR-4 ovarian
OVCAR-5 ovarian = tested on: OVCAR-5 ovarian
OVCAR-8 ovarian = tested on: OVCAR-8 ovarian
RPMI-8226 leukemia = tested on: RPMI-8226 leukemia
RXF 393 renal = tested on: RXF 393 renal
SF-268 CNS = tested on: SF-268 CNS
SF-295 CNS = tested on: SF-295 CNS
SF-539 CNS = tested on: SF-539 CNS
SK-MEL-2 melanoma = tested on: SK-MEL-2 melanoma
SK-MEL-28 melanoma = tested on: SK-MEL-28 melanoma
SK-MEL-5 melanoma = tested on: SK-MEL-5 melanoma
SK-OV-3 ovarian = tested on: SK-OV-3 ovarian
SN12C renal = tested on: SN12C renal
SNB-19 CNS = tested on: SNB-19 CNS
SNB-75 CNS = tested on: SNB-75 CNS
SNB-78 CNS = tested on: SNB-78 CNS
SR leukemia = tested on: SR leukemia
SW-620 colon = tested on: SW-620 colon
TK-10 renal = tested on: TK-10 renal
U251 CNS = tested on: U251 CNS
UACC-257 melanoma = tested on: UACC-257 melanoma
UACC-62 melanoma = tested on: UACC-62 melanoma
UO-31 renal = tested on: UO-31 renal
XF 498 CNS = tested on: XF 498 CNS
KM20L2 colon = tested on: KM20L2 colon

SMILES: NC(=O)C(=O)N/N=C(\CC1(O)C(=O)Nc2ccccc21)c1ccc2ccccc2c1 (configuration not stated)
- TGI (786-0 renal): > 100 µM
- TGI (A498 renal): 82.1 µM
- TGI (A549 NSCLC): 43.9 µM
- TGI (ACHN renal): > 100 µM
- TGI (CAKI-1 renal): > 100 µM
- TGI (CCRF-CEM leukemia): 48.5 µM
- TGI (COLO 205 colon): 41.1 µM
- TGI (DLD-1 colon): > 100 µM
- TGI (DMS 114 small cell lung): 55.4 µM
- TGI (DMS 273 small cell lung): 80.5 µM
- TGI (EKVX NSCLC): > 100 µM
- TGI (HCC-2998 colon): 87.9 µM
- TGI (HCT-116 colon): 21.2 µM
- TGI (HCT-15 colon): > 100 µM
- TGI (HL-60(TB) leukemia): 36.5 µM
- TGI (HOP-18 NSCLC): > 100 µM
- TGI (HOP-62 NSCLC): > 100 µM
- TGI (HOP-92 NSCLC): 87.8 µM
- TGI (HT29 colon): > 100 µM
- TGI (IGROV1 ovarian): > 100 µM
- TGI (K-562 leukemia): 61.7 µM
- TGI (KM12 colon): 58.7 µM
- TGI (LOX IMVI melanoma): 85.5 µM
- TGI (LXFL 529 NSCLC): > 100 µM
- TGI (M14 melanoma): > 100 µM
- TGI (M19-MEL melanoma): 65.6 µM
- TGI (MALME-3M melanoma): > 100 µM
- TGI (MOLT-4 leukemia): 53.5 µM
- TGI (NCI-H226 lung): > 100 µM
- TGI (NCI-H23 lung): 76.7 µM
- TGI (NCI-H460 lung): > 100 µM
- TGI (NCI-H522 lung): 41.6 µM
- TGI (OVCAR-3 ovarian): 67.3 µM
- TGI (OVCAR-4 ovarian): > 100 µM
- TGI (OVCAR-5 ovarian): > 100 µM
- TGI (OVCAR-8 ovarian): > 100 µM
- TGI (RPMI-8226 leukemia): 86.3 µM
- TGI (RXF 393 renal): 41.2 µM
- TGI (SF-268 CNS): > 100 µM
- TGI (SF-295 CNS): > 100 µM
- TGI (SF-539 CNS): > 100 µM
- TGI (SK-MEL-2 melanoma): 48.5 µM
- TGI (SK-MEL-28 melanoma): > 100 µM
- TGI (SK-MEL-5 melanoma): > 100 µM
- TGI (SK-OV-3 ovarian): > 100 µM
- TGI (SN12C renal): 60.5 µM
- TGI (SNB-19 CNS): > 100 µM
- TGI (SNB-75 CNS): > 100 µM
- TGI (SNB-78 CNS): > 100 µM
- TGI (SR leukemia): 44.5 µM
- TGI (SW-620 colon): > 100 µM
- TGI (TK-10 renal): > 100 µM
- TGI (U251 CNS): 76.4 µM
- TGI (UACC-257 melanoma): > 100 µM
- TGI (UACC-62 melanoma): 77.9 µM
- TGI (UO-31 renal): > 100 µM
- TGI (XF 498 CNS): 51.3 µM

SMILES: COC(=O)C1CC2(c3ccccc3)C(=O)c3ccccc3N2O1 (configuration not stated)
- TGI (786-0 renal): > 100 µM
- TGI (A498 renal): > 100 µM
- TGI (A549 NSCLC): > 100 µM
- TGI (ACHN renal): > 100 µM
- TGI (CAKI-1 renal): > 100 µM
- TGI (CCRF-CEM leukemia): > 100 µM
- TGI (COLO 205 colon): > 100 µM
- TGI (DLD-1 colon): > 100 µM
- TGI (DMS 114 small cell lung): > 100 µM
- TGI (DMS 273 small cell lung): > 100 µM
- TGI (EKVX NSCLC): > 100 µM
- TGI (HCC-2998 colon): > 100 µM
- TGI (HCT-116 colon): > 100 µM
- TGI (HCT-15 colon): > 100 µM
- TGI (HL-60(TB) leukemia): 82.1 µM
- TGI (HOP-18 NSCLC): > 100 µM
- TGI (HOP-62 NSCLC): > 100 µM
- TGI (HOP-92 NSCLC): > 100 µM
- TGI (HT29 colon): > 100 µM
- TGI (IGROV1 ovarian): > 100 µM
- TGI (K-562 leukemia): > 100 µM
- TGI (KM12 colon): > 100 µM
- TGI (KM20L2 colon): > 100 µM
- TGI (LOX IMVI melanoma): 81.7 µM
- TGI (LXFL 529 NSCLC): > 100 µM
- TGI (M14 melanoma): > 100 µM
- TGI (M19-MEL melanoma): > 100 µM
- TGI (MALME-3M melanoma): > 100 µM
- TGI (MOLT-4 leukemia): 75.8 µM
- TGI (NCI-H226 lung): > 100 µM
- TGI (NCI-H23 lung): > 100 µM
- TGI (NCI-H460 lung): > 100 µM
- TGI (NCI-H522 lung): 28.8 µM
- TGI (OVCAR-3 ovarian): > 100 µM
- TGI (OVCAR-4 ovarian): > 100 µM
- TGI (OVCAR-5 ovarian): > 100 µM
- TGI (OVCAR-8 ovarian): > 100 µM
- TGI (RPMI-8226 leukemia): 57 µM
- TGI (SF-268 CNS): > 100 µM
- TGI (SF-295 CNS): > 100 µM
- TGI (SF-539 CNS): > 100 µM
- TGI (SK-MEL-2 melanoma): > 100 µM
- TGI (SK-MEL-28 melanoma): > 100 µM
- TGI (SK-MEL-5 melanoma): > 100 µM
- TGI (SK-OV-3 ovarian): > 100 µM
- TGI (SN12C renal): > 100 µM
- TGI (SNB-19 CNS): > 100 µM
- TGI (SNB-75 CNS): > 100 µM
- TGI (SNB-78 CNS): > 100 µM
- TGI (SR leukemia): 65.3 µM
- TGI (SW-620 colon): > 100 µM
- TGI (TK-10 renal): > 100 µM
- TGI (U251 CNS): > 100 µM
- TGI (UACC-257 melanoma): > 100 µM
- TGI (UACC-62 melanoma): > 100 µM
